From the OligoGym collection
After the bases stand the sugars from the 5' end (letter, count) and the backbone: PS all phosphorothioate, else s phosphorothioate and o phosphodiester by linkage. Methylation of C is not given here. e = 2'-O-(2-methoxyethyl) (MOE); k = constrained ethyl (cEt); d = 2'-deoxy (DNA); m = 2'-O-methyl

Target: HSD17B13
Details: ASO, HepaRG

Sequence | target mRNA inhibition (1 µM) [%] | also measured
ACCAAACTTCCAGCAG (sugars k3 d1 m1 d8 k3, PS) | 54 | 
ACCAAACTTGCCCATA (sugars k3 d10 k3, PS) | 46 | 
ACCAACTATGTAATAG (sugars k3 d10 k3, PS) | 47 | 
ACCAATATGGGATGAG (sugars k3 d10 k3, PS) | 24 | 
ACCAATGCAGTTTGTA (sugars k3 d10 k3, PS) | 75 | target mRNA inhibition (0.02 µM): 6%; target mRNA inhibition (0.078 µM): 0%; target mRNA inhibition (0.313 µM): 32%; target mRNA inhibition (1.25 µM): 80%; target mRNA inhibition (5 µM): 90%
ACCACATACGCATGCG (sugars k3 d10 k3, PS) | 45 | 
ACCACGATTGTTACAT (sugars k3 d10 k3, PS) | 34 | 
ACCAGAATCCATTCTA (sugars k3 d10 k3, PS) | 60 | 
ACCATAGGACATGGAG (sugars k3 d10 k3, PS) | 62 | 
ACCCAGTATTCACAAA (sugars k3 d10 k3, PS) | 10 | 
ACCGTTTTGGGCTAAT (sugars k3 d10 k3, PS) | 78 | target mRNA inhibition (0.02 µM): 0%; target mRNA inhibition (0.078 µM): 0%; target mRNA inhibition (0.313 µM): 45%; target mRNA inhibition (1.25 µM): 81%; target mRNA inhibition (5 µM): 95%
ACCTTACCTTGTGCTT (sugars k3 d10 k3, PS) | 0 | 
ACGATTGTTACATCAC (sugars k3 d10 k3, PS) | 53 | 
ACGCCTAGTTTTCGGC (sugars k3 d10 k3, PS) | 7 | 
ACGGTGATCAAATGTA (sugars k3 d10 k3, PS) | 53 | 
ACGGTGATCAAATGTA (sugars kkdddddddddkekek, PS) | 33 | 
ACTAATATTGAGGCAC (sugars k3 d1 m1 d8 k3, PS) | 42 | 
ACTAATTTAGTCAACT (sugars k3 d10 k3, PS) | 18 | 
ACTACAAGAGGTTATT (sugars k3 d10 k3, PS) | 46 | 
ACTACATGACCTGGGT (sugars k3 d10 k3, PS) | 54 | 
ACTACATTAACACCAA (sugars k3 d10 k3, PS) | 46 | 
ACTACTTCAGTTAGCA (sugars k3 d10 k3, PS) | 79 | 
ACTAGAACTCCCAACC (sugars k3 d10 k3, PS) | 20 | 
ACTCCGTTATAAGTTT (sugars k3 d10 k3, PS) | 42 | 

Sequence | target mRNA inhibition (1 µM) [%] | also measured
ACTCTAAATACCCTTG (sugars k3 d10 k3, PS) | 16 | 
ACTCTATTGATTGGCT (sugars k3 d10 k3, PS) | 57 | 
ACTGACAACCCTTAAC (sugars k3 d10 k3, PS) | 10 | 
ACTGCTGCTAGTGCCA (sugars k3 d9 k3 e1, PS) | 57 | 
ACTGTATTAAGACAGT (sugars k3 d10 k3, PS) | 20 | 
ACTTCAGAGTTATACA (sugars k3 d10 k3, PS) | 35 | 
ACTTCTTACGACTTCA (sugars k3 d10 k3, PS) | 43 | 
ACTTGATCTCTTAGCT (sugars k3 d9 k3 e1, PS) | 59 | 
ACTTTCATAGGGAGAC (sugars k3 d10 k3, PS) | 80 | target mRNA inhibition (0.02 µM): 0%; target mRNA inhibition (0.078 µM): 8%; target mRNA inhibition (0.313 µM): 25%; target mRNA inhibition (1.25 µM): 69%; target mRNA inhibition (5 µM): 83%
ACTTTTAGGGAGGTAG (sugars k3 d10 k3, PS) | 20 | 
ACTTTTCCGTCTCACA (sugars k3 d10 k3, PS) | 89 | target mRNA inhibition (0.02 µM): 0%; target mRNA inhibition (0.078 µM): 19%; target mRNA inhibition (0.313 µM): 61%; target mRNA inhibition (1.25 µM): 88%; target mRNA inhibition (5 µM): 84%
AGAAATCTAAGAACCC (sugars k3 d10 k3, PS) | 25 | 
AGAACCAATATGCTCT (sugars k3 d10 k3, PS) | 38 | 
AGAACCAGGACTCTCC (sugars k3 d10 k3, PS) | 67 | 
AGAAGTATGTGAACTC (sugars k3 d10 k3, PS) | 41 | 
AGAATAGAGTTGCACC (sugars k3 d9 k3 e1, PS) | 58 | 
AGAATAGAGTTGCACC (sugars k3 d10 k3, PS) | 70 | 
AGACAATTAACATTCG (sugars k3 d10 k3, PS) | 62 | 
AGACAGTTGAGTAGTG (sugars k3 d10 k3, PS) | 63 | 
AGACCAAAAAGATGGC (sugars k3 d10 k3, PS) | 80 | target mRNA inhibition (0.02 µM): 4%; target mRNA inhibition (0.078 µM): 35%; target mRNA inhibition (0.313 µM): 69%; target mRNA inhibition (1.25 µM): 82%; target mRNA inhibition (5 µM): 72%
AGACCTCTGTGAAAGC (sugars k3 d10 k3, PS) | 50 | 
AGACTAAGGGACCAGG (sugars k3 d10 k3, PS) | 80 | target mRNA inhibition (0.02 µM): 22%; target mRNA inhibition (0.078 µM): 24%; target mRNA inhibition (0.313 µM): 56%; target mRNA inhibition (1.25 µM): 90%; target mRNA inhibition (5 µM): 94%
AGAGAGCGATAGATCT (sugars k3 d10 k3, PS) | 15 | 
AGAGAGTAATCAGTTT (sugars kkdddddddddkekek, PS) | 52 | 

Sequence | target mRNA inhibition (1 µM) [%] | also measured
AGAGCCAAACTGCTAC (sugars k3 d10 k3, PS) | 55 | 
AGAGGATAGTCCATGC (sugars k3 d10 k3, PS) | 74 | target mRNA inhibition (0.02 µM): 12%; target mRNA inhibition (0.078 µM): 19%; target mRNA inhibition (0.313 µM): 51%; target mRNA inhibition (1.25 µM): 73%; target mRNA inhibition (5 µM): 97%
AGAGGATAGTCCATGC (sugars kkdddddddddkekek, PS) | 70 | 
AGAGGCAAGGATACCT (sugars k3 d10 k3, PS) | 78 | target mRNA inhibition (0.02 µM): 5%; target mRNA inhibition (0.078 µM): 7%; target mRNA inhibition (0.313 µM): 39%; target mRNA inhibition (1.25 µM): 68%; target mRNA inhibition (5 µM): 40%
AGAGGCTAGGGAAATC (sugars kkdddddddddkekek, PS) | 59 | 
AGAGTCGGTCACCTTT (sugars k3 d10 k3, PS) | 71 | 
AGAGTTATCTGGTTTG (sugars k3 d10 k3, PS) | 56 | 
AGAGUTGCACCGTTTT (sugars k3 d1 m1 d8 k3, PS) | 68 | 
AGATGGGCAAGGCCAC (sugars k3 d10 k3, PS) | 59 | 
AGATGGTAAGGAGTAG (sugars k3 d10 k3, PS) | 26 | 
AGATTAGTCTTGATGT (sugars k3 d10 k3, PS) | 63 | 
AGATTGGAATGCTACT (sugars k3 d10 k3, PS) | 63 | 
AGATTTACTTCCTTGT (sugars k3 d10 k3, PS) | 41 | 
AGCGAATGTTAAAACT (sugars k3 d10 k3, PS) | 16 | 
AGCTAAGAGACACTTC (sugars k3 d10 k3, PS) | 41 | 
AGCTAAGTATACTTTC (sugars k3 d10 k3, PS) | 18 | 
AGCTACCTCCAAATTC (sugars k3 d10 k3, PS) | 0 | 
AGCTATAGGTAGCTAA (sugars k3 d10 k3, PS) | 0 | 
AGCTGAGTGGATTACA (sugars k3 d10 k3, PS) | 29 | 
AGCTTAAACTCCAATG (sugars k3 d10 k3, PS) | 40 | 
AGCTTGGAAGGAGACT (sugars k3 d10 k3, PS) | 69 | 
AGCTTTTGTCCACCTT (sugars k3 d9 k3 e1, PS) | 69 | 
AGCTTTTGTCCACCTT (sugars k3 d10 k3, PS) | 57 | 
AGGCACTAAAGGTTTC (sugars k3 d10 k3, PS) | 61 | 

Sequence | target mRNA inhibition (1 µM) [%] | also measured
AGGCTGTAAGAGTCAG (sugars k3 d10 k3, PS) | 74 | 
AGGGAATTTATCAAAC (sugars k3 d10 k3, PS) | 47 | 
AGGGAGGTAGCTTTTG (sugars k3 d10 k3, PS) | 46 | 
AGGTAGCTAATGTATG (sugars k3 d10 k3, PS) | 53 | 
AGGTAGCTTTTGTCCA (sugars k3 d1 m1 d8 k3, PS) | 59 | 
AGGTTTAGCAATTTAG (sugars k3 d10 k3, PS) | 54 | 
AGGTTTTGATACCAGT (sugars k3 d10 k3, PS) | 60 | 
AGTAACTTTATTAACG (sugars k3 d10 k3, PS) | 12 | 
AGTAAGGTAAAGTCTA (sugars k3 d10 k3, PS) | 55 | 
AGTAATAAAGTCCAGA (sugars k3 d10 k3, PS) | 43 | 
AGTAATCAGTTTTCCT (sugars k3 d10 k3, PS) | 65 | 
AGTAATTGCTATAGTA (sugars k3 d10 k3, PS) | 48 | 
AGTACAGTTCCTTTTC (sugars kkdddddddddkekek, PS) | 40 | 
AGTAGTGGAGCCAGAC (sugars k3 d10 k3, PS) | 39 | 
AGTAGTGTAAGCTGAG (sugars k3 d10 k3, PS) | 88 | target mRNA inhibition (0.02 µM): 0%; target mRNA inhibition (0.078 µM): 4%; target mRNA inhibition (0.313 µM): 50%; target mRNA inhibition (1.25 µM): 78%; target mRNA inhibition (5 µM): 92%
AGTATGACAACTGGAG (sugars k3 d10 k3, PS) | 15 | 
AGTATGTTTATGTAAG (sugars k3 d10 k3, PS) | 48 | 
AGTCATATTGAAAATC (sugars k3 d10 k3, PS) | 39 | 
AGTCCAGAATAGAGTT (sugars k3 d10 k3, PS) | 58 | 
AGTCGGATTATTTTTT (sugars k3 d10 k3, PS) | 42 | 
AGTCTTAAACCTTCCC (sugars k3 d9 k3 e1, PS) | 61 | 
